# In PubChem BioAssay (NCI):
#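 How tested: cells in 96-well plates exposed to compound for 48 hours at five concentrations. GI50: concentration for 50% inhibition of growth. TGI: concentration producing complete growth inhibition.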
# Legend:
# Test in all cases: NCI tumour cell line growth inhibition, 48 h
# NCI-H522 lung = test system: NCI-H522 lung
# COLO 205 colon = test system: COLO 205 colon
# MALME-3M melanoma = test system: MALME-3M melanoma
# T-47D breast = test system: T-47D breast
# OVCAR-4 ovarian = test system: OVCAR-4 ovarian
# RXF 393 renal = test system: RXF 393 renal
# 786-0 renal = test system: 786-0 renal
# UACC-62 melanoma = test system: UACC-62 melanoma
# A549 NSCLC = test system: A549 NSCLC
# MOLT-4 leukemia = test system: MOLT-4 leukemia
# OVCAR-5 ovarian = test system: OVCAR-5 ovarian
# U251 CNS = test system: U251 CNS
# SK-MEL-2 melanoma = test system: SK-MEL-2 melanoma
# SR leukemia = test system: SR leukemia
# CAKI-1 renal = test system: CAKI-1 renal
# UACC-257 melanoma = test system: UACC-257 melanoma
# HL-60(TB) leukemia = test system: HL-60(TB) leukemia
# OVCAR-8 ovarian = test system: OVCAR-8 ovarian
# SK-MEL-28 melanoma = test system: SK-MEL-28 melanoma
# HOP-62 NSCLC = test system: HOP-62 NSCLC
# NCI-H226 lung = test system: NCI-H226 lung
# ACHN renal = test system: ACHN renal
# LOX IMVI melanoma = test system: LOX IMVI melanoma
# SF-295 CNS = test system: SF-295 CNS
# NCI-H460 lung = test system: NCI-H460 lung
# NCI-H23 lung = test system: NCI-H23 lung
# RPMI-8226 leukemia = test system: RPMI-8226 leukemia
# IGROV1 ovarian = test system: IGROV1 ovarian
# K-562 leukemia = test system: K-562 leukemia
# HCT-15 colon = test system: HCT-15 colon
# HS 578T breast = test system: HS 578T breast
# SN12C renal = test system: SN12C renal
# MDA-MB-231 breast = test system: MDA-MB-231 breast
# PC-3 prostate = test system: PC-3 prostate
# DU-145 prostate = test system: DU-145 prostate
# BT-549 breast = test system: BT-549 breast
# TK-10 renal = test system: TK-10 renal
# HOP-92 NSCLC = test system: HOP-92 NSCLC
# EKVX NSCLC = test system: EKVX NSCLC
# SNB-75 CNS = test system: SNB-75 CNS
# A498 renal = test system: A498 renal
# SF-268 CNS = test system: SF-268 CNS
# KM12 colon = test system: KM12 colon
# NCI/ADR-RES ovarian = test system: NCI/ADR-RES ovarian
# SW-620 colon = test system: SW-620 colon
# OVCAR-3 ovarian = test system: OVCAR-3 ovarian
# HCC-2998 colon = test system: HCC-2998 colon
# SK-MEL-5 melanoma = test system: SK-MEL-5 melanoma
# CCRF-CEM leukemia = test system: CCRF-CEM leukemia
# SK-OV-3 ovarian = test system: SK-OV-3 ovarian
# SF-539 CNS = test system: SF-539 CNS
# M14 melanoma = test system: M14 melanoma
# MCF7 breast = test system: MCF7 breast
# SNB-19 CNS = test system: SNB-19 CNS
# HCT-116 colon = test system: HCT-116 colon
# UO-31 renal = test system: UO-31 renal
# MDA-MB-435 = test system: MDA-MB-435
# HT29 colon = test system: HT29 colon
compound,measurement,setting,value
COc1ccc(/C(=C2\O[C@@H]([C@H]3COC(C)(C)O3)[C@H]3OC(C)(C)O[C@@H]23)c2cc(OC)c(OC)c(OC)c2)cc1O,GI50,NCI-H522 lung,2.73 µM
same,TGI,NCI-H522 lung,9.08 µM
same,GI50,COLO 205 colon,17.4 µM
same,TGI,COLO 205 colon,> 100 µM
same,GI50,MALME-3M melanoma,5.46 µM
same,TGI,MALME-3M melanoma,> 100 µM
same,GI50,T-47D breast,25.1 µM
same,TGI,T-47D breast,> 100 µM
same,GI50,OVCAR-4 ovarian,9.18 µM
same,TGI,OVCAR-4 ovarian,> 100 µM
same,GI50,RXF 393 renal,2.12 µM
same,TGI,RXF 393 renal,5.89 µM
same,GI50,786-0 renal,21.1 µM
same,TGI,786-0 renal,60.6 µM
same,GI50,UACC-62 melanoma,57.9 µM
same,TGI,UACC-62 melanoma,> 100 µM
same,GI50,A549 NSCLC,23.2 µM
same,TGI,A549 NSCLC,> 100 µM
same,GI50,MOLT-4 leukemia,6.93 µM
same,TGI,MOLT-4 leukemia,> 100 µM
same,GI50,OVCAR-5 ovarian,> 100 µM
same,TGI,OVCAR-5 ovarian,> 100 µM
same,GI50,U251 CNS,3.84 µM
same,TGI,U251 CNS,48.2 µM
same,GI50,SK-MEL-2 melanoma,57.9 µM
same,TGI,SK-MEL-2 melanoma,> 100 µM
same,GI50,SR leukemia,6.27 µM
same,TGI,SR leukemia,> 100 µM
same,GI50,CAKI-1 renal,37.3 µM
same,TGI,CAKI-1 renal,> 100 µM
same,GI50,UACC-257 melanoma,> 100 µM
same,TGI,UACC-257 melanoma,> 100 µM
same,GI50,HL-60(TB) leukemia,3.39 µM
same,TGI,HL-60(TB) leukemia,23.3 µM
same,GI50,OVCAR-8 ovarian,5.27 µM
same,TGI,OVCAR-8 ovarian,> 100 µM
same,GI50,SK-MEL-28 melanoma,5.45 µM
same,TGI,SK-MEL-28 melanoma,> 100 µM
same,GI50,HOP-62 NSCLC,5.93 µM
same,TGI,HOP-62 NSCLC,25.5 µM
same,GI50,NCI-H226 lung,25.9 µM
same,TGI,NCI-H226 lung,> 100 µM
same,GI50,ACHN renal,9.31 µM
same,TGI,ACHN renal,> 100 µM
same,GI50,LOX IMVI melanoma,5.18 µM
same,TGI,LOX IMVI melanoma,> 100 µM
same,GI50,SF-295 CNS,7 µM
same,TGI,SF-295 CNS,37.3 µM
same,GI50,NCI-H460 lung,4.31 µM
same,TGI,NCI-H460 lung,> 100 µM
same,GI50,NCI-H23 lung,7.96 µM
same,TGI,NCI-H23 lung,46 µM
same,GI50,RPMI-8226 leukemia,4.63 µM
same,TGI,RPMI-8226 leukemia,> 100 µM
same,GI50,IGROV1 ovarian,33.2 µM
same,TGI,IGROV1 ovarian,> 100 µM
same,GI50,K-562 leukemia,3.22 µM
same,TGI,K-562 leukemia,> 100 µM
same,GI50,HCT-15 colon,4.51 µM
same,TGI,HCT-15 colon,> 100 µM
same,GI50,HS 578T breast,2.83 µM
same,TGI,HS 578T breast,7.88 µM
same,GI50,SN12C renal,5.62 µM
same,TGI,SN12C renal,> 100 µM
same,GI50,MDA-MB-231 breast,4.58 µM
same,TGI,MDA-MB-231 breast,30.7 µM
same,GI50,PC-3 prostate,5.11 µM
same,TGI,PC-3 prostate,> 100 µM
same,GI50,DU-145 prostate,3.29 µM
same,TGI,DU-145 prostate,13.3 µM
same,GI50,BT-549 breast,5.39 µM
same,TGI,BT-549 breast,> 100 µM
same,GI50,TK-10 renal,23.4 µM
same,TGI,TK-10 renal,61.4 µM
same,GI50,HOP-92 NSCLC,5.45 µM
same,TGI,HOP-92 NSCLC,31.8 µM
same,GI50,EKVX NSCLC,55.7 µM
same,TGI,EKVX NSCLC,> 100 µM
same,GI50,SNB-75 CNS,1.8 µM
same,TGI,SNB-75 CNS,6.31 µM
same,GI50,A498 renal,35.7 µM
same,TGI,A498 renal,> 100 µM
same,GI50,SF-268 CNS,6.95 µM
same,TGI,SF-268 CNS,31.4 µM
same,GI50,KM12 colon,3.99 µM
same,TGI,KM12 colon,> 100 µM
same,GI50,NCI/ADR-RES ovarian,2.52 µM
same,TGI,NCI/ADR-RES ovarian,6.91 µM
same,GI50,SW-620 colon,4.05 µM
same,TGI,SW-620 colon,> 100 µM
same,GI50,OVCAR-3 ovarian,2.38 µM
same,TGI,OVCAR-3 ovarian,5.34 µM
same,GI50,HCC-2998 colon,13.2 µM
same,TGI,HCC-2998 colon,> 100 µM
same,GI50,SK-MEL-5 melanoma,2.69 µM
same,TGI,SK-MEL-5 melanoma,11.2 µM
same,GI50,CCRF-CEM leukemia,3.75 µM
same,TGI,CCRF-CEM leukemia,> 100 µM
same,GI50,SK-OV-3 ovarian,4.11 µM
same,TGI,SK-OV-3 ovarian,18.5 µM
same,GI50,SF-539 CNS,2.59 µM
same,TGI,SF-539 CNS,6.63 µM
same,GI50,M14 melanoma,2.4 µM
same,TGI,M14 melanoma,5.9 µM
same,GI50,MCF7 breast,3.78 µM
same,TGI,MCF7 breast,> 100 µM
same,GI50,SNB-19 CNS,4.28 µM
same,TGI,SNB-19 CNS,> 100 µM
same,GI50,HCT-116 colon,4.14 µM
same,TGI,HCT-116 colon,> 100 µM
same,GI50,UO-31 renal,7.53 µM
same,TGI,UO-31 renal,77.8 µM
CSc1nc(Cl)c2c(n1)Sc1nc3cc4c(cc3n1C2O)OCCO4 (configuration not stated),TGI,NCI-H522 lung,0.386 µM
same,TGI,COLO 205 colon,0.142 µM
same,TGI,MALME-3M melanoma,32.6 µM
same,TGI,T-47D breast,65.3 µM
same,TGI,OVCAR-4 ovarian,44.2 µM
same,TGI,RXF 393 renal,19.3 µM
same,TGI,786-0 renal,14.9 µM
same,TGI,UACC-62 melanoma,7.87 µM
same,TGI,A549 NSCLC,14 µM
same,TGI,MOLT-4 leukemia,16.7 µM
same,TGI,OVCAR-5 ovarian,36 µM
same,TGI,U251 CNS,14.3 µM
same,TGI,SK-MEL-2 melanoma,29.2 µM
same,TGI,CAKI-1 renal,1.21 µM
same,TGI,UACC-257 melanoma,36.1 µM
same,TGI,OVCAR-8 ovarian,3.03 µM
same,TGI,SK-MEL-28 melanoma,21.7 µM
same,TGI,HOP-62 NSCLC,23 µM
same,TGI,NCI-H226 lung,0.889 µM
same,TGI,MDA-MB-435,> 100 µM
same,TGI,ACHN renal,26.8 µM
same,TGI,LOX IMVI melanoma,0.392 µM
same,TGI,SF-295 CNS,38.5 µM
same,TGI,NCI-H460 lung,2.39 µM
same,TGI,NCI-H23 lung,19.9 µM
same,TGI,RPMI-8226 leukemia,2 µM
same,TGI,IGROV1 ovarian,18 µM
same,TGI,K-562 leukemia,17.6 µM
same,TGI,HCT-15 colon,11.1 µM
same,TGI,HS 578T breast,23.6 µM
same,TGI,SN12C renal,46.6 µM
same,TGI,MDA-MB-231 breast,34.3 µM
same,TGI,PC-3 prostate,65.2 µM
same,TGI,DU-145 prostate,15.9 µM
same,TGI,BT-549 breast,23.3 µM
same,TGI,TK-10 renal,32.9 µM
same,TGI,HOP-92 NSCLC,4.41 µM
same,TGI,EKVX NSCLC,36.3 µM
same,TGI,SNB-75 CNS,36.4 µM
same,TGI,A498 renal,15.9 µM
same,TGI,SF-268 CNS,80.3 µM
same,TGI,KM12 colon,> 100 µM
same,TGI,NCI/ADR-RES ovarian,0.407 µM
same,TGI,SW-620 colon,25.2 µM
same,TGI,OVCAR-3 ovarian,2.46 µM
same,TGI,HCC-2998 colon,12.1 µM
same,TGI,CCRF-CEM leukemia,3.76 µM
same,TGI,HT29 colon,18.9 µM
same,TGI,SK-OV-3 ovarian,> 53.4 µM
same,TGI,SF-539 CNS,0.0867 µM
same,TGI,M14 melanoma,15.5 µM
same,TGI,MCF7 breast,27.7 µM
same,TGI,SNB-19 CNS,3.99 µM
same,TGI,HCT-116 colon,26.6 µM
same,TGI,UO-31 renal,16 µM
OCCNc1nc(NCCO)nc(Nc2ccc(C3=NN(c4cc(Cl)cc(Cl)c4)C(c4ccc(C(F)(F)F)cc4)C3)cc2)n1 (configuration not stated),GI50,ACHN renal,1.37 µM
same,TGI,ACHN renal,2.66 µM
same,GI50,LOX IMVI melanoma,1.56 µM
same,TGI,LOX IMVI melanoma,2.97 µM
same,GI50,SF-295 CNS,1.36 µM
same,TGI,SF-295 CNS,2.71 µM
same,GI50,SK-MEL-5 melanoma,1.72 µM
same,TGI,SK-MEL-5 melanoma,3.11 µM
same,GI50,UO-31 renal,1.55 µM
same,TGI,UO-31 renal,2.92 µM
